Measured values: US20210183467A1, “SYSTEM AND METHOD FOR USING MICROBIOME TO DE-RISK DRUG DEVELOPMENT” (YALE UNIVERSITY, priority 2018, published 2021)

Tests used:
BT4554 = assay: B. thetaiotaomicron loss-of-function screen, bt4554 deletion and complementation; type: in vitro ADME, Bacteroides thetaiotaomicron
Source text: Two independent strategies were developed to identify the microbiome-encoded DMEs responsible for these chemical transformations. For members of the Bacteroides (the most prominent genus in the human gut microbiome in the experiments), Proteobacteria, and other genetically tractable species, Insertion Sequencing (INSeq) is used to make mapped, arrayed transposon mutant libraries as described in Goodman 2009 and Goodman 2011. From these libraries, a representative set of mutants was identified that collectively include disruptions in most non-essential genes. Each mutant was incubated with the pool of drugs metabolized by the parent species. Genes required for drug metabolism by LC-MS were identified as above.
1,352 B. thetaiotaomicron mutants were selected from an arrayed library as described in Goodman 2009 that disrupt ˜70% of its non-essential genes. Each mutant was incubated with a pool of 30 drugs metabolized by this organism. Drug levels were measured over time as above. […] FIGS. 10A-C show two examples: one of these is brivudine, an antiviral whose primary metabolite (bromovinyluracil; BVU) is dangerously toxic for patients taking 5-fluorouracil, a principal therapy for colorectal cancer. With reference to FIGS. 10A-C, transposon mutants representing disruptions in 70% of B. thetaiotaomicron (Bt) non-essential genes were screened for metabolism of 30 drugs targeted by the parent strain.
The contribution of microbial drug metabolism to serum drug and metabolite exposure was directly quantified by specifically modulating this activity in otherwise identical mice. To this end, the capacity of ten individual bacterial species was first determined, representing five major phyla that dominate the mammalian gut microbiota, for their capacity to convert BRV to BVU as illustrated in FIG. 14A. […]
Frozen stocks are re-suspended in 4 mL pre-reduced GMM and incubated anaerobically at 37° C. for 14 h. […] Substrates and reaction product are extracted and quantified by LC-MS as described below. […]

[1] = tested on: Bacteroides thetaiotaomicron; assay: BRV conversion assay with gut isolates; type: in vitro ADME; settings: among ten bacterial species
Description: Frozen stocks of bacteria (Table 4) are plated on BHI blood agar and incubated at 37° C. under anaerobic conditions. Single colonies are inoculated into 4 mL pre-reduced GMM and incubated anaerobically at 37° C. for 24 h (Akkermansia muciniphila for 48 hours). BRV conversion assays are performed with the resulting dense cultures, as described above for bacterial communities.

[2] = Liver S9 enzyme assay of conversion to BVU; type: in vitro ADME
Description: Human and murine S9 liver fractions are purchased from Thermo Fisher Scientific (HMS9L and MSMCPL, respectively). Enzyme assays are performed for the deglycosylation of arabinosyluracil derivatives. In brief, assays are performed at 37° C. Reaction volumes are 150 μL with liver S9 fractions at 5 μg/μL and BRV or SRV at 100 μM in 10 mM phosphate buffer (pH 7.4). Reactions are initiated by addition of drugs to pre-warmed reaction mixture. 10 μL samples are collected and quenched in 10 μL acetonitrile on ice at 0, 5, 10, 15, 20, 30, 45, 60, 90, 120, 180, 270, and 360 min after initiation. Substrates and reaction product are extracted and quantified by LC-MS as described below.

## O=c1[nH]c(=O)n([C@H]2C[C@H](O)[C@@H](CO)O2)cc1/C=C/Br [BRV, Brivudine]
BT4554; targeted gene deletion and complementation at different expression levels
  role of bt4554 in BRV conversion to BVU: necessary and sufficient
BT4554; transposon mutant, recapitulated by nonpolar deletion
  conversion to BVU by mutant in BT4554: unable to convert
[1]
  capacity to convert BRV to BVU: highest metabolic activity
[2]; human S9 liver fractions
  conversion of BRV to BVU: stoichiometric conversion to BVU
[2]; murine S9 liver fractions
  conversion of BRV to BVU: stoichiometric conversion to BVU
